From patent publication US4438104A, “Endorphins having placental or pancreatic origin” (Endorphin, Inc., priority 1982, dated 1984)

Tests used:
mice = conditions: stated as known characteristic; cited from earlier work
Balb/C mice = assay: Delay in tail-flick in mice from a standardized heat injury; assay type: in vivo
Method: Using p-endorphin as prepared in Example 2 tests of the delay in tail-flick in mice from a standardized heat injury were conducted under our direction and control as follows: Inbred mice (in this case Balb/C males weighing 20 to 25 gms) were held in a special body holder in cotton and a standardized "heat-run" or lamp was held a standardized distance away from the base of the tail which was painted black with india ink to increase the amount of energy it absorbs. On the average, 3.5 seconds of this heat is enough to cause these mice to flick their tail in a vigorous fashion. This end-point is unmistakable. The standard deviation of 50 determinations of this kind is approximately 0.7 seconds. Therefore, the normal range of large numbers of these mice with multiple determinations would be about 2.2 to 4.8 seconds.
The data set forth below in Table 1 illustrate the amount of time for the onset of tail flicking by mice tested at various times after the injection of […] of p-endorphin (P-EP).

Substance: beta-endorphin (YGGFMTSEKSQTPLVTLFKNAIIKNAYKKGE; Beta-endorphin; UniProt P01189 237-267, looked up) [endogenous opioid peptide hormone, 61 to 91 portion of beta lipotropin; standard]
- Staub tail (mice): characteristic
- delay in tail-flick (Balb/C mice; mice): more than 10 seconds
- amount required to obtain the same in vivo effect (Balb/C mice; same tail-flick effect as 30 μg P-EP preparation): about 0.8 nanamoles per mouse
